Experimental data: patent US20120156333A1, “STABILIZED BETA CRYPTOXANTHIN-CONTAINING WATER AND THE USE THEREOF” (ARKRAY, INC., priority 2010, published 2012)
Counter-ions that a name gives are not always drawn. Like-named read-outs stand apart in the source and are kept apart here.

Experiments:
[1] = for ln k: converted from log Kobs
Experimental: Specifically, a graph of FIG. 185 on page 95 of the publication was cited. FIG. 1 is an Arrhenius plot of degradation of thiamine hydrochloride in a vitamin complex liquid agent, the Y axis indicates log Kobs (day^−1), and the X axis indicates 1/T (K^1). The stable periods were calculated based on the activation energy for degradation of thiamine hydrochloride in the vitamin complex liquid agent, shown in the graph.
In FIG. 1, the Y axis is indicated by not ln, but log. Therefore log Kobs was converted into ln k.
Then, −Ea/R and ln A were calculated from the ln k and 1/T (K^−1) on the X axis of FIG. 1 based on the Arrhenius equation represented by the formula (1) below.

[2] = degradation in vitamin complex liquid agent, cited from earlier work

ln k ([1]; T 20.0 ° C.): −9.4406
ln k ([1]; T 22.5 ° C.): −8.635
ln k ([1]; T 29.1 ° C.): −7.829
ln k ([1]; T 38.7 ° C.): −6.6775
ln k ([1]; T 50.0 ° C.): −5.296
ln k ([1]; T 57.6 ° C.): −4.0986
ln k ([1]; T 67.7 ° C.): −2.993
ln A ([1]; intercept b of Arrhenius equation from ln k and 1/T (K^−1)): 35.139
−Ea/R ([1]; slope a of Arrhenius equation from ln k and 1/T (K^−1)): −13005
SMILES: Cc1ncc(C[n+]2csc(CCO)c2C)c(N)n1 [thiamine hydrochloride]
Kobs ([2]; T 20.0 ° C.): 0.000 day⁻¹
log10k ([2]; T 20.0 ° C.): −4.100
Kobs ([2]; T 22.5 ° C.): 0.000 day⁻¹
log10k ([2]; T 22.5 ° C.): −3.750
Kobs ([2]; T 29.1 ° C.): 0.000 day⁻¹
log10k ([2]; T 29.1 ° C.): −3.400
Kobs ([2]; T 38.7 ° C.): 0.001 day⁻¹
log10k ([2]; T 38.7 ° C.): −2.900
Kobs ([2]; T 50.0 ° C.): 0.005 day⁻¹
log10k ([2]; T 50.0 ° C.): −2.300
Kobs ([2]; T 57.6 ° C.): 0.017 day⁻¹
log10k ([2]; T 57.6 ° C.): −1.780
Kobs ([2]; T 67.7 ° C.): 0.050 day⁻¹
log10k ([2]; T 67.7 ° C.): −1.300
